# Reference: patent US20200022998A1, “MEDICAL USE OF NOTCH4 OR INHIBITORS THEREOF” (BEIJING INSTITUTE OF GENOMICS, CHINESE ACADEMY OF SCIENCES, priority 2016, published 2020)
# Tests used:
# [1] = tested on: normal iPSC BC1; test: in vitro megakaryocyte lineage differentiation of iPSC BC1 (spin-EB), flow cytometry at Day 14; assay type: cell-based, human
# Description: BC1 cell line was cultured in E8 medium, under the culture condition of 37° C., 5% CO2, and was passaged at (1:5)-(1:10) every 3-4 days depending on the concentration of cells. The cells were incubated in 0.5 mM EDTA, at room temperature for 2 min, and then were re-suspended and split up and down with E8 medium, and transferred to a culture dish that had been coated with Vitronectin one hour before.
# During differentiation, spin-embryoid body (spin-EB) method was used (Ng E S, Davis R, Stanley E G, Elefanty A G, A protocol describing the use of a recombinant protein-based, animal product-free medium (APEL) for human embryonic stem cell differentiation as spin embryoid bodies, Nat Protoc. 2008; 3(5): 768-76.). At Day 0 (D0) after differentiation, iPSCs reached a confluence of above 85% (confluence refers to the percentage of the surface of a culture dish that is covered by adherent cells). After digestion with Accutase at 37° C. for 3 min, the cells were neutralized and split in SFM medium (50% IMDM, 50% Ham's F12, and the added reagents and factors including: human albumin, monothioglycerol, Glutamax, Chemically Defined Lipid Concentrate, L-Ascorbic acid 2-phosphate sesquimagnesium salt hydrate, ITS-X), counted, and centrifuged. After the cells were re-suspended in SFM, cytokines, i.e. 10 μM ROCK inhibitor (Rho-associated protein kinase inhibitor), 10 ng/ml bFGF, and 10 ng/ml BMP4, were added. Cells were seeded to a round-bottom 96-well plate, at 3000 or 5000 cells/50 μl for each well (3000 or 5000 cells were seeded to each well, in a volume of 50 μl for each well). At Day 2, 50 μl SFM medium+10 ng/ml bFGF+10 ng/ml BMP4+100 ng/ml SCF+20 ng/ml VEGF was added to each well. At Day 5, Day 8, and Day 11, 50 μl SFM medium+10 ng/ml bFGF+10 ng/ml BMP4+50 ng/ml SCF+10 ng/ml VEGF was added to each well, wherein 100 μl old medium was pipetted off at Day 8, and 10 ng/ml thrombopoietin (TPO) was added to each well at Day 11.
# At Day 14 (D14), single cells (suspending cells) surrounding embryoid bodies (EBs) were collected. The cells were used in the following flow cytometry.
# The cell surface markers (CD34, CD45, CD41, CD42) of the collected cells were detected by flow cytometer. The assay was as followed.
# The detection was carried out in four tubes: the first tube was a negative tube that was not labeled with any flow antibody; the second tube was labelled with two antibodies CD34-APC and CD45-PE; the third tube was labeled with CD34-APC and CD41-PE; and the fourth tube was labeled with CD41-PE and CD42-APC, wherein CD34^+CD45^+represented the population of hematopoietic stem/progenitor cells (HSPCs), CD34^+CD41^+ represented the population of megakaryocyte progenitor cells (MKPs), and CD41^+CD42^+ represented the population of mature megakaryocytes (MKs).
# (1) The BC1 cell line used was the same as the one used in Example 1, and was divided into three groups, wherein two 96-well plates were used for each group, and the cells were seeded at 5000 cells/50 μl to each well. In vitro differentiation was carried out by reference to the steps in Example 1, wherein the step of adding a drug was carried out in accordance with the following steps in I-III groups:
# I. At Day 0 after differentiation, 10 μM RO4929097 was added, and DMSO was added to the control well.
# III. At Day 2 after differentiation, 10 μM RO4929097, 10 μM L-685458, and 10 μM DAPT were added, respectively; in addition, at Day 5 after differentiation, 10 μM RO4929097, 10 μM L-685458, and 10 μM DAPT were added, respectively.
# (2) The cells were collected for flow cytometry analysis, and as to the steps, please refer to the Example 1 above. […]
# I. At Day 0 after differentiation, 10 μM RO4929097, and 10 μM DAPT were added, respectively.
# II. At Day 2 after differentiation, 10 μM RO4929097, and 10 μM DAPT were added, respectively.
# III. At Day 5 after differentiation, 10 μM RO4929097, and 10 μM DAPT were added, respectively.
# IV. […]
# [2] = tested on: umbilical cord blood-derived CD34+ cells; test: in vitro megakaryocyte lineage differentiation of umbilical cord blood-derived CD34+ cells, flow cytometry; assay type: cell-based, human; details: 10 μM; cells collected at D14; FIG. 14
# Description: (1) CD34^+ cells in umbilical cord blood were obtained by Ficoll-Paque PLUS density gradient centrifugation and magnetic bead sorting using CD34 MicroBead Kit. As to the particular steps, please refer to (GE Healthcare Life Sciences, http://www.gelifesciences.com), (Miltenyi Biotec, http://www.miltenyibiotec.com.cn).
# (2) Differentiation of umbilical cord blood-derived CD34^+ cells into megakaryocytes: umbilical cord blood-derived CD34^+ cells were counted, and seeded at 1*10^6 cells to 4 ml StemSpan™ SFEM 11+50 ng/ml SCF+50 ng/ml TPO+50 ng/ml IL-6+20 ng/ml IL-3 in a 12-well plate, with 1 ml medium for each well, and four wells in total, to which 10 μM R04929097, 10 μM L-685458, 10 μM DAPT, and the same volume of DMSO as control were added, respectively, and the time was recorded as Day 0. The liquid was changed every 3 days, and the culture condition was 37° C., 5% CO2. After incubation for 6 days, the cell density was high, and the cells in each well were divided into two wells of a 12-well plate, with 2 ml medium for each well. The inhibitors were added at the same concnetrations as described above. The cells were collected at D14, counted, and detected for cell surface markers (CD41, CD42, CD61) by flow cytometer.
# As to the collection of umbilical cord blood-derived CD34^+ cells, in vitro megakaryocytic differentiation and detection, please refer to Example 4-1.
compound,measurement,setting,value
CC(C)C[C@H](NC(=O)[C@H](Cc1ccccc1)C[C@@H](O)[C@H](Cc1ccccc1)NC(=O)OC(C)(C)C)C(=O)N[C@@H](Cc1ccccc1)C(N)=O [L-685458],increase of proportion of mature megakaryocytes produced vs DMSO control,"[1]; 5 μM added at Day 2, FIG. 6",21%
same,decrease of proportion of HSPCs (CD34+CD45+) vs DMSO control,"[1]; 10 μM added at Day 2, FIG. 7A",27%
same,"proportion of MKPs (CD34+CD41+) produced, increased fold vs DMSO control (set as 1)","[1]; 10 μM added at Day 2, FIG. 7A",about 1.5 folds
same,"proportion of mature megakaryocytes MKs (CD41+CD42+) produced, increased fold vs DMSO control (set as 1)","[1]; 10 μM added at Day 2, FIG. 7A",about 2.3 folds
same,"proportion of HSPCs produced, increased fold vs DMSO control (set as 1)","[1]; 10 μM added at Day 5, FIG. 7B",about 1.5 folds
same,"proportion of MKPs produced, increased fold vs DMSO control (set as 1)","[1]; 10 μM added at Day 5, FIG. 7B",about 1.2 folds
same,"proportion of mature megakaryocytes MKs produced, increased fold vs DMSO control (set as 1)","[1]; 10 μM added at Day 5, FIG. 7B",about 3.8 folds
same,"total number of hematopoietic cells, increase vs control group","[1]; 10 μM added at Day 5, FIG. 7B",2.3 folds
same,production of megakaryocyte progenitor cells and/or mature megakaryocytes in vitro,[1]; screen in the in vitro differentiation system of stem cells,significantly promote
same,"proportion of mature megakaryocyte (CD61+), increase vs control group",[2],2.4 folds
same,"proportion of mature megakaryocytes MK (CD41+CD42+) produced, increase vs control group",[2],2.3 folds
